According to patent US12410153B2, “Compounds, compositions and methods” (Avalo Therapeutics, Inc., priority 2014, dated 2025):
Read-outs that look alike come from different tables or passages of the source.

Assay: Repeated once-daily oral dosing with food (Days 1-7) in healthy subjects, PK and PD
Assay type: in vivo, human
Conditions: for Cmax: read-out: Cmax, Mean (SD); for AUC(0-inf): read-out: AUCinf, Mean (SD)
Experimental: A randomized, double-blind, placebo-controlled, parallel-dose group in-patient study is conducted to investigate the pharmacodynamic (PD) effects of crystalline Form II of Compound (I) in healthy subjects.
The study is designed as a three-part, sequential study. The sequential nature of the study ensures that a range of doses are investigated first in a young, healthy population (Part 1) before proceeding to higher doses in the healthy population and the comparator populations (intermediate age and elderly) (Parts 2 and 3). For the purposes of this study, “young” refers to a subject who is 18 to 45 years of age, “intermediate age” refers to a subject who is 46 to 64 years of age, and “elderly” refers to a subject who is 65 years of age or older.
After a screening period of up to 21 days (Days −23 to −3), 16 healthy, young male and female subjects are randomly assigned to a dose group as shown in Table 9.
Each parallel dose group is balanced for gender (approximately equal number of males and females). The randomized subjects are domiciled from Day −1 through Day 8. On Day −1, the subjects receive placebo tablets in the fed state and undergo ambulatory blood pressure monitoring (ABPM) and safety assessments to establish time-matched baselines. On Days 1-7, the subjects receive the study drug in the fed state and undergo safety, pharmacokinetic (PK) and pharmacodynamics (PD) assessments. On Days 8-11, follow-up PK and safety assessments are performed.
Safety assessments include Clinician-Administered Dissociative States Scale (CADSS), Columbia-Suicide Severity Rating Scale (C-SSRS), concomitant medication, adverse event (AE) and vital sign assessments. In PK assessments, blood samples are taken and analyzed to determine PK parameters such as Cmax, Tmax, AUC0-24, and t1/2. PD assessments include ABPM, plasma brain-derived neurotrophic factor (BDNF) measurements, and Profile of Mood States (POMS) assessments.
After a screening period of up to 21 days (Days −23 to −3), 16 subjects (8 healthy, young male and female subjects, and 8 healthy, intermediate age male and female subjects) are randomly assigned to a dose group as shown in Table 10.
After a screening period of up to 21 days (Days −23 to −3), 16 subjects (8 healthy, young male and female subjects, and 8 healthy, elderly male and female subjects) are randomly assigned to a dose group as shown in Table 11.

[1] = both sexes, human, plasma, oral, 12 mg, young subjects, 12 mg, Day 7
[2] = both sexes, human, plasma, oral, 16 mg, young subjects, 16 mg, Day 7
[3] = both sexes, human, plasma, oral, 20 mg, young subjects, 20 mg, Day 7

In the case of Cc1ccc(COC(=O)N2CC[C@H](CNc3ncccn3)[C@H](F)C2)cc1 [Form II, 4-methylbenzyl (3S, 4R)-3-fluoro-4-[(pyrimidin-2-ylamino)methyl] piperidine-1-carboxylate], the AUC(0-t) (both sexes, human, plasma, oral, 12 mg, young subjects, 12 mg, Day 1, read-out: AUC0-24, Mean (SD)) is reported as 1860 ng·h/mL, the AUC(0-t) (both sexes, human, plasma, oral, 12 mg, young subjects, 12 mg, Day 1, read-out: AUClast, Mean (SD)) is reported as 1840 ng·h/mL and the Cmax (both sexes, human, plasma, oral, 12 mg, young subjects, 12 mg, Day 1) is reported as 239 ng/mL. For the same compound, the Vd/F (both sexes, human, plasma, oral, 12 mg, young subjects, 12 mg, Day 1, read-out: Vz/F, Mean (SD)) was 197 L, the Tmax (both sexes, human, plasma, oral, 12 mg, young subjects, 12 mg, Day 1, read-out: tmax, Mean (SD)) was 1.77 h and the Tmax (both sexes, human, plasma, oral, 12 mg, young subjects, 12 mg, Day 1, read-out: tmax, Median) was 1.5 h. It also gave an AUC(0-t) (both sexes, human, plasma, oral, 12 mg, young subjects, 12 mg, Day 7, read-out: AUC0-24, Mean (SD)) of 3060 ng·h/mL, an AUC(0-inf) [1] of 5930 ng·h/mL and an AUC(0-t) (both sexes, human, plasma, oral, 12 mg, young subjects, 12 mg, Day 7, read-out: AUClast, Mean (SD)) of 5610 ng·h/mL. It also gave a Cmax [1] of 274 ng/mL, a Vd/F (both sexes, human, plasma, oral, 12 mg, young subjects, 12 mg, Day 7, read-out: Vss/F, Mean (SD)) of 115 L and a half-life (both sexes, human, plasma, oral, 12 mg, young subjects, 12 mg, Day 7, read-out: t1/2, Mean (SD) (converted)) of 20.5 h. The Tmax (both sexes, human, plasma, oral, 12 mg, young subjects, 12 mg, Day 7, read-out: tmax, Mean (SD)) was 2.42 h, the Tmax (both sexes, human, plasma, oral, 12 mg, young subjects, 12 mg, Day 7, read-out: tmax, Median) was 2.5 h and the AUC(0-t) (both sexes, human, plasma, oral, 16 mg, young subjects, 16 mg, Day 1, read-out: AUC0-24, Mean (SD)) was 2660 ng·h/mL. It also gave an AUC(0-t) (both sexes, human, plasma, oral, 16 mg, young subjects, 16 mg, Day 1, read-out: AUClast, Mean (SD)) of 2630 ng·h/mL, a Cmax (both sexes, human, plasma, oral, 16 mg, young subjects, 16 mg, Day 1) of 306 ng/mL and a Vd/F (both sexes, human, plasma, oral, 16 mg, young subjects, 16 mg, Day 1, read-out: Vz/F, Mean (SD)) of 175 L. It also gave a Tmax (both sexes, human, plasma, oral, 16 mg, young subjects, 16 mg, Day 1, read-out: tmax, Mean (SD)) of 2.58 h, a Tmax (both sexes, human, plasma, oral, 16 mg, young subjects, 16 mg, Day 1, read-out: tmax, Median) of 3 h and an AUC(0-t) (both sexes, human, plasma, oral, 16 mg, young subjects, 16 mg, Day 7, read-out: AUC0-24, Mean (SD)) of 4300 ng·h/mL. The AUC(0-inf) [2] was 8020 ng·h/mL, the AUC(0-t) (both sexes, human, plasma, oral, 16 mg, young subjects, 16 mg, Day 7, read-out: AUClast, Mean (SD)) was 7450 ng·h/mL and the Cmax [2] was 413 ng/mL. It also gave a half-life (both sexes, human, plasma, oral, 16 mg, young subjects, 16 mg, Day 7, read-out: t1/2, Mean (SD) (converted)) of 20 h, a Tmax (both sexes, human, plasma, oral, 16 mg, young subjects, 16 mg, Day 7, read-out: tmax, Mean (SD)) of 1.75 h and a Tmax (both sexes, human, plasma, oral, 16 mg, young subjects, 16 mg, Day 7, read-out: tmax, Median) of 1.75 h. The AUC(0-t) (both sexes, human, plasma, oral, 20 mg, young subjects, 20 mg, Day 1, read-out: AUC0-24, Mean (SD)) was 3520 ng·h/mL, the AUC(0-t) (both sexes, human, plasma, oral, 20 mg, young subjects, 20 mg, Day 1, read-out: AUClast, Mean (SD)) was 3480 ng·h/mL and the Cmax (both sexes, human, plasma, oral, 20 mg, young subjects, 20 mg, Day 1) was 384 ng/mL. For the same compound, the Vd/F (both sexes, human, plasma, oral, 20 mg, young subjects, 20 mg, Day 1, read-out: Vz/F, Mean (SD)) was 148 L, the Tmax (both sexes, human, plasma, oral, 20 mg, young subjects, 20 mg, Day 1, read-out: tmax, Mean (SD)) was 2.17 h and the Tmax (both sexes, human, plasma, oral, 20 mg, young subjects, 20 mg, Day 1, read-out: tmax, Median) was 2.25 h. For the same compound, the AUC(0-t) (both sexes, human, plasma, oral, 20 mg, young subjects, 20 mg, Day 7, read-out: AUC0-24, Mean (SD)) was 6040 ng·h/mL, the AUC(0-inf) [3] was 10500 ng·h/mL and the AUC(0-t) (both sexes, human, plasma, oral, 20 mg, young subjects, 20 mg, Day 7, read-out: AUClast, Mean (SD)) was 10100 ng·h/mL. It also gave a Cmax [3] of 534 ng/mL, a half-life (both sexes, human, plasma, oral, 20 mg, young subjects, 20 mg, Day 7, read-out: t1/2, Mean (SD) (converted)) of 18.8 h and a Tmax (both sexes, human, plasma, oral, 20 mg, young subjects, 20 mg, Day 7, read-out: tmax, Mean (SD)) of 1.67 h. For the same compound, the Tmax (both sexes, human, plasma, oral, 20 mg, young subjects, 20 mg, Day 7, read-out: tmax, Median) was 1.5 h, the Tmax (both sexes, human, plasma, oral, Day 1, read-out: median Tmax values, range) was 2 to 3 h and the Vd (both sexes, human, plasma, oral, Day 7, read-out: average apparent volume of distribution, range) was 83 to 116 L. The half-life (both sexes, human, plasma, oral, Day 7, read-out: average t½, range) was 17 to 25 h, the half-life (both sexes, human, plasma, oral, Day 7, read-out: average t½, range across genders) was 21 to 24 h and the Tmax (both sexes, human, plasma, oral, Day 7, read-out: median Tmax values, range) was 1.5 to 3 h. For the same compound, the “Day 7/Day 1 Cmax Ratio, Mean (SD)” value (elderly, 12 mg) was 1.53 (0.13), the “Observed Accumulation Index, Mean (SD)” value (elderly, 12 mg) was 2.12 (0.22) and the “Steady State Accumulation Index, Mean (SD)” value (elderly, 12 mg) was 1.30 (0.11). The “CL/F, Mean (SD)” value (elderly, 12 mg, Day 1) was 5.87 (1.32) L/h.
